Measured values published in the NIST ThermoML archive (doi:10.1016/j.jct.2014.06.004).

What was measured:
[1] = refractive index (Na D-line) (dimensionless); xn = mol fraction of the nth substance listed; settings: 100 kPa, Liquid, Standard Abbe refractometry
[2] = xn = mol fraction of the nth substance listed; settings: 100 kPa, Liquid; for speed of sound: Frequency=3 MHz, Sing-around technique in a fixed-path interferometer; for mass density: Vibrating tube method

CCCCCCC(=O)O [heptanoic acid] + CCCC(=O)O
Settings | mass density, [2] [kg/m3] | refractive index, [1] | speed of sound, [2] [m/s]
293.15 K, x1 = 0.0559 | 954.2 | 1.4005 | 1203
293.15 K, x1 = 0.1059 | 951.3 | 1.4024 | 1209
293.15 K, x1 = 0.2061 | 945.8 | 1.4054 | 1222
293.15 K, x1 = 0.3087 | 940.8 | 1.4084 | 1233
293.15 K, x1 = 0.4037 | 936.7 | 1.4109 | 1244
293.15 K, x1 = 0.5037 | 932.7 | 1.4134 | 1254
293.15 K, x1 = 0.6006 | 929.2 | 1.4157 | 1263
293.15 K, x1 = 0.7049 | 925.8 | 1.4179 | 1272
293.15 K, x1 = 0.805 | 922.8 | 1.4199 | 1280
293.15 K, x1 = 0.9052 | 920.1 | 1.4217 | 1289
293.15 K, x1 = 0.9575 | 918.7 | 1.4226 | 1292
293.15 K, x1 = 1 | 917.7 | 1.4234 | 1295
298.15 K, x1 = 0.0559 | 949.3 | 1.3984 | 1185
298.15 K, x1 = 0.1059 | 946.4 | 1.4001 | 1191
298.15 K, x1 = 0.2061 | 941 | 1.4033 | 1203
298.15 K, x1 = 0.3087 | 936.2 | 1.4063 | 1215
298.15 K, x1 = 0.4037 | 932.1 | 1.4089 | 1225
298.15 K, x1 = 0.5037 | 928.2 | 1.4114 | 1236
298.15 K, x1 = 0.6006 | 924.8 | 1.4136 | 1245
298.15 K, x1 = 0.7049 | 921.5 | 1.4159 | 1254
298.15 K, x1 = 0.805 | 918.5 | 1.4179 | 1263
298.15 K, x1 = 0.9052 | 915.9 | 1.4197 | 1271
298.15 K, x1 = 0.9575 | 914.5 | 1.4207 | 1275
298.15 K, x1 = 1 | 913.5 | 1.4214 | 1278
303.15 K, x1 = 0.0559 | 944.4 | 1.3963 | 1166
303.15 K, x1 = 0.1059 | 941.6 | 1.398 | 1172
303.15 K, x1 = 0.2061 | 936.3 | 1.4012 | 1185
303.15 K, x1 = 0.3087 | 931.5 | 1.4042 | 1197
303.15 K, x1 = 0.4037 | 927.6 | 1.4068 | 1207
303.15 K, x1 = 0.5037 | 923.8 | 1.4093 | 1217
303.15 K, x1 = 0.6006 | 920.4 | 1.4116 | 1227
303.15 K, x1 = 0.7049 | 917.1 | 1.4138 | 1236
303.15 K, x1 = 0.805 | 914.2 | 1.4158 | 1245
303.15 K, x1 = 0.9052 | 911.6 | 1.4177 | 1253
303.15 K, x1 = 0.9575 | 910.3 | 1.4186 | 1257
303.15 K, x1 = 1 | 909.3 | 1.4194 | 1260
308.15 K, x1 = 0.0559 | 939.5 | 1.3942 | 1147
308.15 K, x1 = 0.1059 | 936.7 | 1.3958 | 1154
308.15 K, x1 = 0.2061 | 931.5 | 1.3991 | 1167
308.15 K, x1 = 0.3087 | 926.9 | 1.4021 | 1179
308.15 K, x1 = 0.4037 | 923 | 1.4047 | 1189
308.15 K, x1 = 0.5037 | 919.3 | 1.4072 | 1199
308.15 K, x1 = 0.6006 | 916 | 1.4095 | 1209
308.15 K, x1 = 0.7049 | 912.8 | 1.4117 | 1218
308.15 K, x1 = 0.805 | 910 | 1.4138 | 1227
308.15 K, x1 = 0.9052 | 907.4 | 1.4157 | 1235
308.15 K, x1 = 0.9575 | 906.1 | 1.4166 | 1239
308.15 K, x1 = 1 | 905.1 | 1.4173 | 1242
313.15 K, x1 = 0.0559 | 934.6 | 1.392 | 1129
313.15 K, x1 = 0.1059 | 931.9 | 1.3937 | 1136
313.15 K, x1 = 0.2061 | 926.8 | 1.397 | 1148
313.15 K, x1 = 0.3087 | 922.3 | 1.4 | 1161
313.15 K, x1 = 0.4037 | 918.5 | 1.4026 | 1171
313.15 K, x1 = 0.5037 | 914.8 | 1.4051 | 1182
313.15 K, x1 = 0.6006 | 911.6 | 1.4074 | 1191
313.15 K, x1 = 0.7049 | 908.4 | 1.4097 | 1201
313.15 K, x1 = 0.805 | 905.7 | 1.4117 | 1209
313.15 K, x1 = 0.9052 | 903.1 | 1.4136 | 1218
313.15 K, x1 = 0.9575 | 901.9 | 1.4146 | 1222
313.15 K, x1 = 1 | 900.9 | 1.4153 | 1225

CCCCCCC(=O)O [heptanoic acid] + CCC(=O)O
Settings | mass density, [2] [kg/m3] | refractive index, [1] | speed of sound, [2] [m/s]
293.15 K, x1 = 0.0539 | 985.8 | 1.39 | 1176
293.15 K, x1 = 0.1023 | 979.3 | 1.3929 | 1185
293.15 K, x1 = 0.2037 | 967.5 | 1.3982 | 1202
293.15 K, x1 = 0.3021 | 957.8 | 1.4026 | 1217
293.15 K, x1 = 0.4007 | 949.6 | 1.4066 | 1231
293.15 K, x1 = 0.5015 | 942.3 | 1.4102 | 1244
293.15 K, x1 = 0.6051 | 935.9 | 1.4135 | 1257
293.15 K, x1 = 0.7009 | 930.7 | 1.4162 | 1267
293.15 K, x1 = 0.8016 | 925.8 | 1.4188 | 1277
293.15 K, x1 = 0.9002 | 921.5 | 1.4212 | 1287
293.15 K, x1 = 0.95 | 919.5 | 1.4223 | 1291
293.15 K, x1 = 1 | 917.7 | 1.4234 | 1295
298.15 K, x1 = 0.0539 | 980.5 | 1.388 | 1158
298.15 K, x1 = 0.1023 | 974.2 | 1.3909 | 1166
298.15 K, x1 = 0.2037 | 962.5 | 1.3961 | 1184
298.15 K, x1 = 0.3021 | 953 | 1.4006 | 1199
298.15 K, x1 = 0.4007 | 944.9 | 1.4045 | 1213
298.15 K, x1 = 0.5015 | 937.7 | 1.4081 | 1226
298.15 K, x1 = 0.6051 | 931.1 | 1.4114 | 1239
298.15 K, x1 = 0.7009 | 926.3 | 1.4142 | 1249
298.15 K, x1 = 0.8016 | 921.4 | 1.4169 | 1260
298.15 K, x1 = 0.9002 | 917.2 | 1.4192 | 1269
298.15 K, x1 = 0.95 | 915.3 | 1.4203 | 1273
298.15 K, x1 = 1 | 913.5 | 1.4214 | 1278
303.15 K, x1 = 0.0539 | 975.2 | 1.3859 | 1139
303.15 K, x1 = 0.1023 | 969 | 1.3888 | 1148
303.15 K, x1 = 0.2037 | 957.5 | 1.394 | 1165
303.15 K, x1 = 0.3021 | 948.1 | 1.3985 | 1180
303.15 K, x1 = 0.4007 | 940.2 | 1.4024 | 1195
303.15 K, x1 = 0.5015 | 933.2 | 1.406 | 1208
303.15 K, x1 = 0.6051 | 926.9 | 1.4094 | 1220
303.15 K, x1 = 0.7009 | 921.9 | 1.4121 | 1231
303.15 K, x1 = 0.8016 | 917.1 | 1.4148 | 1242
303.15 K, x1 = 0.9002 | 913 | 1.4171 | 1251
303.15 K, x1 = 0.95 | 911.1 | 1.4183 | 1256
303.15 K, x1 = 1 | 909.3 | 1.4194 | 1260
308.15 K, x1 = 0.0539 | 970 | 1.3838 | 1120
308.15 K, x1 = 0.1023 | 963.8 | 1.3866 | 1129
308.15 K, x1 = 0.2037 | 952.5 | 1.3919 | 1146
308.15 K, x1 = 0.3021 | 943.3 | 1.3963 | 1162
308.15 K, x1 = 0.4007 | 935.5 | 1.4003 | 1176
308.15 K, x1 = 0.5015 | 928.6 | 1.4039 | 1190
308.15 K, x1 = 0.6051 | 922.4 | 1.4073 | 1202
308.15 K, x1 = 0.7009 | 917.5 | 1.4101 | 1213
308.15 K, x1 = 0.8016 | 912.8 | 1.4127 | 1224
308.15 K, x1 = 0.9002 | 908.8 | 1.4151 | 1233
308.15 K, x1 = 0.95 | 906.9 | 1.4162 | 1238
308.15 K, x1 = 1 | 905.1 | 1.4173 | 1242
313.15 K, x1 = 0.0539 | 964.7 | 1.3816 | 1101
313.15 K, x1 = 0.1023 | 958.6 | 1.3845 | 1110
313.15 K, x1 = 0.2037 | 947.5 | 1.3897 | 1128
313.15 K, x1 = 0.3021 | 938.4 | 1.3942 | 1144
313.15 K, x1 = 0.4007 | 930.8 | 1.3982 | 1158
313.15 K, x1 = 0.5015 | 924 | 1.4018 | 1172
313.15 K, x1 = 0.6051 | 918 | 1.4052 | 1185
313.15 K, x1 = 0.7009 | 913.1 | 1.408 | 1196
313.15 K, x1 = 0.8016 | 908.5 | 1.4107 | 1206
313.15 K, x1 = 0.9002 | 904.5 | 1.4131 | 1216
313.15 K, x1 = 0.95 | 902.7 | 1.4142 | 1220
313.15 K, x1 = 1 | 900.9 | 1.4153 | 1225
